# Values of other authors as cited in US20250041461A1, “[177LU] LUTETIUM-PSMA I&T COMPOSITION AND DOSIMETRY, KIT, METHOD OF MAKING, AND METHOD OF USING THEREOF” (Curium US LLC, priority 2023, published 2025).
# Read-outs that look alike come from different tables or passages of the source.
# Settings: cited from earlier work
smiles,measurement,setting,value
"O=C([O-])CC[C@H](NC(=O)N[C@@H](CCCCNC(=O)CCCCCCC(=O)NCCCC[C@@H](NC(=O)[C@@H](Cc1ccccc1)NC(=O)[C@@H](Cc1ccc(O)c(I)c1)NC(=O)CC[C@H](C(=O)[O-])N1CCN(CC(=O)[O-])CCN(CC(=O)[O-])CCN(CC(=O)[O-])CC1)C(=O)[O-])C(=O)[O-])C(=O)[O-].[177Lu+3].[H+].[H+].[H+].[H+].[H+] [^177Lu-PSMA I&T, (3S,7S,26R,29R,32R,37R)-29-benzyl-32-(4-hydroxy-3-iodobenzyl)-5,13,20,28,31,34-hexaoxo-37-(4,7,10-tris(carboxymethyl)-1,4,7,10-tetraazacyclododecan-1-yl)-4,6,12,21,27,30,33-heptaazaheptatriacontane-1,3,7,26,37-pentacarboxylic acid; lutetium-177 (III)]","Absorbed Dose, Kidneys, Mean ± SD",First cycle (n = 15),0.71 ± 0.25 Gy/GBq
same,"Absorbed Dose, Kidneys, Range",First cycle (n = 15),0.33-1.22 Gy/GBq
same,"Absorbed Dose, Lacrimal glands, Mean ± SD",First cycle (n = 15),3.8 ± 1.5 Gy/GBq
same,"Absorbed Dose, Lacrimal glands, Range",First cycle (n = 15),1.68-7.03 Gy/GBq
same,"Absorbed Dose, Liver, Mean ± SD",First cycle (n = 15),0.12 ± 0.07 Gy/GBq
same,"Absorbed Dose, Liver, Range",First cycle (n = 15),0.05-0.26 Gy/GBq
same,"Absorbed Dose, Parotid glands, Mean ± SD",First cycle (n = 15),0.56 Gy/GBq
same,"Absorbed Dose, Parotid glands, Range",First cycle (n = 15),0.25-0.84 Gy/GBq
same,"Absorbed Dose, Submandibular glands, Mean ± SD",First cycle (n = 15),0.54 ± 0.29 Gy/GBq
same,"Absorbed Dose, Submandibular glands, Range",First cycle (n = 15),0.25-1.35 Gy/GBq
same,"Effective Dose, Whole body, Mean ± SD",First cycle (n = 15),0.05 Sv/GBq
same,"Effective Dose, Whole body, Range",First cycle (n = 15),0.02-0.11 Sv/GBq
same,"Absorbed Dose for Tumor Lesions, Lung metastases, Mean ± SD","First cycle, n 1",2.7 Gy/GBq
same,"Absorbed Dose for Tumor Lesions, Liver metastases, Mean ± SD","First cycle, n 2",1.7 Gy/GBq
same,"Absorbed Dose for Tumor Lesions, Liver metastases, Range","First cycle, n 2",0.85-2.59 Gy/GBq
same,"Absorbed Dose for Tumor Lesions, Lymph node metastases, Mean ± SD","First cycle, n 5",2.6 ± 0.89 Gy/GBq
same,"Absorbed Dose for Tumor Lesions, Lymph node metastases, Range","First cycle, n 5",1.63-3.76 Gy/GBq
same,"Absorbed Dose for Tumor Lesions, Bone metastases, Mean ± SD","First cycle, n 33",3.8 ± 3.1 Gy/GBq
same,"Absorbed Dose for Tumor Lesions, Bone metastases, Range","First cycle, n 33",0.22-12.03 Gy/GBq
same,"Absorbed Dose for Tumor Lesions, All metastases, Mean ± SD","First cycle, n 41",3.5 ± 2.9 Gy/GBq
same,"Absorbed Dose for Tumor Lesions, All metastases, Range","First cycle, n 41",0.22-12.03 Gy/GBq
same,"Absorbed Dose for Tumor Lesions, Liver metastases, Mean ± SD","Fourth cycle, n 2",1.13 Gy/GBq
same,"Absorbed Dose for Tumor Lesions, Liver metastases, Range","Fourth cycle, n 2",0.74-1.51 Gy/GBq
same,"Absorbed Dose for Tumor Lesions, Bone metastases, Mean ± SD","Fourth cycle, n 10",2.7 ± 2.3 Gy/GBq
same,"Absorbed Dose for Tumor Lesions, Bone metastases, Range","Fourth cycle, n 10",1.04-7.60 Gy/GBq
same,"Absorbed Dose for Tumor Lesions, All metastases, Mean ± SD","Fourth cycle, n 12",2.4 ± 2.2 Gy/GBq
same,"Absorbed Dose for Tumor Lesions, All metastases, Range","Fourth cycle, n 12",0.74-7.60 Gy/GBq
same,"Absorbed Dose, Kidneys, Mean ± SD",Fourth cycle,0.69 ± 0.18 Gy/GBq
same,"Absorbed Dose, Kidneys, Range",Fourth cycle,0.45-0.95 Gy/GBq
same,"Absorbed Dose, Lacrimal glands, Mean ± SD",Fourth cycle,3.4 ± 1.7 Gy/GBq
same,"Absorbed Dose, Lacrimal glands, Range",Fourth cycle,1.75-5.35 Gy/GBq
same,"Absorbed Dose, Liver, Mean ± SD",Fourth cycle,0.11 ± 0.04 Gy/GBq
same,"Absorbed Dose, Liver, Range",Fourth cycle,0.07-0.17 Gy/GBq
same,"Absorbed Dose, Parotid glands, Mean ± SD",Fourth cycle,0.50 Gy/GBq
same,"Absorbed Dose, Parotid glands, Range",Fourth cycle,0.32-0.58 Gy/GBq
same,"Absorbed Dose, Submandibular glands, Mean ± SD",Fourth cycle,0.66 ± 0.53 Gy/GBq
same,"Absorbed Dose, Submandibular glands, Range",Fourth cycle,0.24-1.58 Gy/GBq
same,"Effective Dose, Whole body, Mean ± SD",Fourth cycle,0.05 Sv/GBq
same,"Effective Dose, Whole body, Range",Fourth cycle,0.03-0.11 Sv/GBq
same,"Absorbed Dose, Kidneys, Mean ± SD",Overall (n = 34),0.72 ± 0.21 Gy/GBq
same,"Absorbed Dose, Kidneys, Range",Overall (n = 34),0.33-1.22 Gy/GBq
same,"Absorbed Dose, Lacrimal glands, Mean ± SD",Overall (n = 34),3.8 ± 1.4 Gy/GBq
same,"Absorbed Dose, Lacrimal glands, Range",Overall (n = 34),1.68-7.03 Gy/GBq
same,"Absorbed Dose, Liver, Mean ± SD",Overall (n = 34),0.12 ± 0.06 Gy/GBq
same,"Absorbed Dose, Liver, Range",Overall (n = 34),0.05-0.26 Gy/GBq
same,"Absorbed Dose, Parotid glands, Mean ± SD",Overall (n = 34),0.55 Gy/GBq
same,"Absorbed Dose, Parotid glands, Range",Overall (n = 34),0.25-0.84 Gy/GBq
same,"Absorbed Dose, Submandibular glands, Mean ± SD",Overall (n = 34),0.64 ± 0.40 Gy/GBq
same,"Absorbed Dose, Submandibular glands, Range",Overall (n = 34),0.24-1.70 Gy/GBq
same,"Effective Dose, Whole body, Mean ± SD",Overall (n = 34),0.06 Sv/GBq
same,"Effective Dose, Whole body, Range",Overall (n = 34),0.02-0.11 Sv/GBq
same,"Absorbed Dose for Tumor Lesions, Lung metastases, Mean ± SD","Overall, n 3",1.75 ± 0.92 Gy/GBq
same,"Absorbed Dose for Tumor Lesions, Lung metastases, Range","Overall, n 3",0.94-2.68 Gy/GBq
same,"Absorbed Dose for Tumor Lesions, Liver metastases, Mean ± SD","Overall, n 8",1.2 ± 0.67 Gy/GBq
same,"Absorbed Dose for Tumor Lesions, Liver metastases, Range","Overall, n 8",0.47-2.59 Gy/GBq
same,"Absorbed Dose for Tumor Lesions, Lymph node metastases, Mean ± SD","Overall, n 8",3.2 ± 2.2 Gy/GBq
same,"Absorbed Dose for Tumor Lesions, Lymph node metastases, Range","Overall, n 8",1.63-8.46 Gy/GBq
same,"Absorbed Dose for Tumor Lesions, Bone metastases, Mean ± SD","Overall, n 74",3.4 ± 2.7 Gy/GBq
same,"Absorbed Dose for Tumor Lesions, Bone metastases, Range","Overall, n 74",0.22-12.03 Gy/GBq
same,"Absorbed Dose for Tumor Lesions, All metastases, Mean ± SD","Overall, n 93",3.2 ± 2.6 Gy/GBq
same,"Absorbed Dose for Tumor Lesions, All metastases, Range","Overall, n 93",0.22-12.03 Gy/GBq
same,"Absorbed Dose for Tumor Lesions, Lung metastases, Mean ± SD","Second cycle, n 1",1.3 Gy/GBq
same,"Absorbed Dose for Tumor Lesions, Liver metastases, Mean ± SD","Second cycle, n 2",0.94 Gy/GBq
same,"Absorbed Dose for Tumor Lesions, Liver metastases, Range","Second cycle, n 2",0.70-1.17 Gy/GBq
same,"Absorbed Dose for Tumor Lesions, Lymph node metastases, Mean ± SD","Second cycle, n 2",5.2 Gy/GBq
same,"Absorbed Dose for Tumor Lesions, Lymph node metastases, Range","Second cycle, n 2",1.98-8.46 Gy/GBq
same,"Absorbed Dose for Tumor Lesions, Bone metastases, Mean ± SD","Second cycle, n 21",3.4 ± 2.4 Gy/GBq
same,"Absorbed Dose for Tumor Lesions, Bone metastases, Range","Second cycle, n 21",1.03-9.59 Gy/GBq
same,"Absorbed Dose for Tumor Lesions, All metastases, Mean ± SD","Second cycle, n 26",3.3 ± 2.5 Gy/GBq
same,"Absorbed Dose for Tumor Lesions, All metastases, Range","Second cycle, n 26",0.70-8.46 Gy/GBq
same,"Absorbed Dose, Kidneys, Mean ± SD",Second cycle,0.75 ± 0.19 Gy/GBq
same,"Absorbed Dose, Kidneys, Range",Second cycle,0.44-1.01 Gy/GBq
same,"Absorbed Dose, Lacrimal glands, Mean ± SD",Second cycle,4.1 ± 1.1 Gy/GBq
same,"Absorbed Dose, Lacrimal glands, Range",Second cycle,2.44-5.56 Gy/GBq
same,"Absorbed Dose, Liver, Mean ± SD",Second cycle,0.13 ± 0.05 Gy/GBq
same,"Absorbed Dose, Liver, Range",Second cycle,0.08-0.21 Gy/GBq
same,"Absorbed Dose, Parotid glands, Mean ± SD",Second cycle,0.59 Gy/GBq
same,"Absorbed Dose, Parotid glands, Range",Second cycle,0.47-0.80 Gy/GBq
same,"Absorbed Dose, Submandibular glands, Mean ± SD",Second cycle,0.71 ± 0.42 Gy/GBq
same,"Absorbed Dose, Submandibular glands, Range",Second cycle,0.40-1.70 Gy/GBq
same,"Effective Dose, Whole body, Mean ± SD",Second cycle,0.06 Sv/GBq
same,"Effective Dose, Whole body, Range",Second cycle,0.03-0.11 Sv/GBq
same,"Absorbed Dose for Tumor Lesions, Lung metastases, Mean ± SD","Third cycle, n 1",0.94 Gy/GBq
same,"Absorbed Dose for Tumor Lesions, Lymph node metastases, Mean ± SD","Third cycle, n 1",2.6 Gy/GBq
same,"Absorbed Dose for Tumor Lesions, Lymph node metastases, Range","Third cycle, n 1",18.87 Gy/GBq
same,"Absorbed Dose for Tumor Lesions, Liver metastases, Mean ± SD","Third cycle, n 2",0.95 Gy/GBq
same,"Absorbed Dose for Tumor Lesions, Liver metastases, Range","Third cycle, n 2",0.47-1.42 Gy/GBq
same,"Absorbed Dose for Tumor Lesions, Bone metastases, Mean ± SD","Third cycle, n 10",3.2 ± 2.5 Gy/GBq
same,"Absorbed Dose for Tumor Lesions, Bone metastases, Range","Third cycle, n 10",1.11-7.99 Gy/GBq
same,"Absorbed Dose for Tumor Lesions, All metastases, Mean ± SD","Third cycle, n 14",2.7 ± 2.3 Gy/GBq
same,"Absorbed Dose for Tumor Lesions, All metastases, Range","Third cycle, n 14",0.94-7.99 Gy/GBq
same,"Absorbed Dose, Kidneys, Mean ± SD",Third cycle,0.73 ± 0.22 Gy/GBq
same,"Absorbed Dose, Kidneys, Range",Third cycle,0.42-0.93 Gy/GBq
same,"Absorbed Dose, Lacrimal glands, Mean ± SD",Third cycle,3.5 ± 1.4 Gy/GBq
same,"Absorbed Dose, Lacrimal glands, Range",Third cycle,2.41-5.04 Gy/GBq
same,"Absorbed Dose, Liver, Mean ± SD",Third cycle,0.12 ± 0.06 Gy/GBq
same,"Absorbed Dose, Liver, Range",Third cycle,0.07-0.21 Gy/GBq
same,"Absorbed Dose, Parotid glands, Mean ± SD",Third cycle,0.49 Gy/GBq
same,"Absorbed Dose, Parotid glands, Range",Third cycle,0.32-0.64 Gy/GBq
same,"Absorbed Dose, Submandibular glands, Mean ± SD",Third cycle,0.83 ± 0.59 Gy/GBq
same,"Absorbed Dose, Submandibular glands, Range",Third cycle,0.33-1.68 Gy/GBq
same,"Effective Dose, Whole body, Mean ± SD",Third cycle,0.06 Sv/GBq
same,"Effective Dose, Whole body, Range",Third cycle,0.03-0.10 Sv/GBq
same,mean whole-body effective dose,all cycles,0.41±0.18 Sv
same,mean whole-body effective dose per GBq,all cycles,0.06 Sv/GBq
